Holding throughout (type): cell-based
One series deals with sheep blood. On the procedure: In order to evaluate the presence or absence of hemolysis of lactic-acid bacteria in relation to safety of probiotics, K2, K6 and K8 strains were inoculated into a tryptic soybean agar (TSA, Difco Laboratories, USA) containing 5% sheep blood, and were then cultured at 37° C. for about 24 to 48 hr.
Series [1] has as its system IL-6 in mouse macrophage cell line RAW264.7. Briefly: IL-6 ELISA, RAW264.7 cells treated with lactic-acid bacteria lysate. The conditions noted are these: lysate 100 μg/ml and 500 μg/ml, 24 hr. The protocol:
In order to measure the immunological effects of K2, K6 and K8 lactic-acid bacteria, a cytokine quantification experiment using cells was performed. The cells that were used were a mouse macrophage cell line RAW264.7, and the medium used for each cell experiment was a Gibco® Dulbecco's Modified Eagle Medium (DMEM, Gibco, USA) supplemented with 10% fetal bovine serum (Gibco, USA) and 1% penicillin/streptomycin cocktail (Sigma-Aldrich, Germany). RAW264.7 cells cultured at about 80-90% confluency before material treatment were recovered and seeded in an amount of 1×10^6 cells per well of a 24-well plate. After seeding, culture was carried out in an environment of 37° C. and 5% CO2 for 24 hr in order to realize attachment to the 24-well plate and stabilization thereof. Each well was treated with the lactic-acid bacteria lysate at concentrations of 100 μg/ml and 500 μg/ml, and 1 μg/ml of lipopolysaccharide (LPS, Sigma-Aldrich, Germany) was used as a positive control, and an experimental group not treated with any material was used as a negative control. The cells were cultured at 37° C. and 5% CO2 for 24 hr after material treatment, and the cell culture solution was recovered, followed by enzyme-linked immunosorbent assay (ELISA) for IL-6 and TNF-α. Measurement was performed for IL-6 using a Mouse IL-6 Quantikine ELISA Kit (R&D systems, USA) and for TNF-α using a Mouse TNF-alpha Quantikine ELISA Kit (R&D systems, USA).
For orientation: ELISA stands for enzyme-linked immunosorbent assay.

Series [2] has as its system Gardnerella vaginalis KCTC5096 (GV). As to the kind of experiment: Growth inhibition by cell-free culture supernatant (CFCS). Particulars: CFCS at 1× concentration, culture for 48 hr, OD600. The protocol: (§1) In order to measure the activity of the lactic-acid bacteria culture solution on inhibiting the growth of vaginitis pathogens, a 10-fold-concentrated cell-free culture supernatant (CFCS) was prepared. The culture solution of each of K2, K6 and K8 lactic-acid bacteria was centrifuged at 4,000 rpm for 25 min, thereby separating the cells of the lactic-acid bacteria and the culture supernatant from each other. The culture supernatant was filtered using a 0.2 μm pore syringe filter (Sartorius, Germany). The filtered culture supernatant was lyophilized and suspended in 1×PBS to afford a solution concentrated 10-fold compared to the volume of the initial culture solution. CA was inoculated at a concentration of 1×10^5 CFU/ml and GV was inoculated at a concentration of 1×10^6 CFU/ml under individual culture conditions. The CFCS of lactic-acid bacteria was added in a volume corresponding to 0.1 times the final volume to the vaginitis-pathogen-inoculated solution so as to reach 1×, and the test group not added with CFCS was used as a control. The mixed composition was cultured for 24 hr for CA and 48 hr for GV under individual vaginitis-pathogen culture conditions, and the absorbance was measured at a wavelength of OD600. Based on the measured absorbance, growth inhibition was determined using the following cytotoxicity calculation equation. In this equation, ODcontrol represents the absorbance of the control, and ODcfcs represents the absorbance of the CFCS-added group. Growth inhibition (%)=(ODcontrol−ODcfcs)/ODcontrol×100

For series [3], the system named is Candida albicans KCTC7678 (CA). The series is described as above. The conditions noted are these: CFCS at 1× concentration, culture for 24 hr, OD600. On the procedure:
as §1

For series [4], the system named is Escherichia coli KCTC1682 (EC). Briefly: Disc test, clear zone. The conditions noted are these: 35 μl culture solution on 8 mm paper disc, disc diameter subtracted; average of four tests. On the procedure: (§2) In order to confirm the antimicrobial functionality of K2, K6 and K8, the antimicrobial activity of lactic-acid bacteria K2, K6 and K8 against a total of seven types of infectious or opportunistic bacteria, including four types of gram-positive SA, LM, SM, and SS and three types of gram-negative EC, PA, and CS, was determined by measuring clear zones through a disc test. Seven types of bacteria cultured overnight in a BHI plate medium were each suspended in 1× phosphate-buffered saline (PBS) until OD600 of about 0.8 was obtained. Each suspension was absorbed with a sterile cotton swab, spread over an agar medium for an antimicrobial activity test for lactic-acid bacteria, in which BHI and MRS were mixed at a ratio of 1:1, and dried for about 3 min. Each 8 mm paper disc (Advantec, Japan) was attached to the dried test agar medium, and 35 μl of each of K2, K6, and K8 solutions cultured in an MRS broth for about 18 to 20 hr was inoculated to the paper disc, dried for about 3 min, cultured at 37° C. and observed. The size of the clear zone formed after culture was determined in a manner in which the diameter thereof was measured and was calculated after subtracting 8 mm, which is the diameter of the paper disc. The unit for the diameter of the clear zone, which is each numerical value in Table 4, is mm, and each abbreviation is as follows: Staphylococcus aureus KCTC1621 (SA), Listeria monocytogenes KCTC3569 (LM), Streptococcus mutans KCTC3065 (SM), Streptococcus salivarius ATG-P1 (SS), Escherichia coli KCTC1682 (EC), Pseudomonas aeruginosa KCTC2004 (PA), Cronobacter sakazakii KCTC2949 (CS).

Series [5] has as its system Pseudomonas aeruginosa KCTC2004 (PA). As to the kind of experiment: Disc test, clear zone. The conditions noted are these: 35 μl culture solution on 8 mm paper disc, disc diameter subtracted; average of four tests. The protocol:
as §2

For series [6], the system named is Staphylococcus aureus KCTC1621 (SA). As to the kind of experiment: Disc test, clear zone. Particulars: 35 μl culture solution on 8 mm paper disc, disc diameter subtracted; average of four tests. The protocol:
as §2

For series [7], the system named is Listeria monocytogenes KCTC3569 (LM). As to the kind of experiment: Disc test, clear zone. Particulars: 35 μl culture solution on 8 mm paper disc, disc diameter subtracted; average of four tests. On the procedure:
as §2

For series [8], the system named is Cronobacter sakazakii KCTC2949 (CS). Briefly: Disc test, clear zone. The conditions noted are these: 35 μl culture solution on 8 mm paper disc, disc diameter subtracted; average of four tests. The protocol:
as §2

Series [9] has as its system Streptococcus salivarius ATG-P1 (SS). Briefly: Disc test, clear zone. Particulars: 35 μl culture solution on 8 mm paper disc, disc diameter subtracted; average of four tests. On the procedure:
as §2

Series [10] concerns Streptococcus mutans KCTC3065 (SM). As to the kind of experiment: Disc test, clear zone. Particulars: 35 μl culture solution on 8 mm paper disc, disc diameter subtracted; average of four tests. On the procedure:
as §2

For “Lactobacillus plantarum ATG-K2 [Lb. plantarum ATG-K2]”, the “hemolysis and clear zones” value in the series with sheep blood was “not observed”. The “IL-6 production compared to the control” value in [1] is recorded as “induced”. In addition, in series [2], the “growth inhibition of GV” value is 37.49%. Moreover, the “growth inhibition of CA” value in [3] stood at 87.05%. Besides, the “diameter of the clear zone EC” value in series [4] amounted to 3.38 ± 0.21 mm. For the same substance, in [5], the “diameter of the clear zone PA” value was found to be 3.75 ± 0.13 mm. Moreover, the “diameter of the clear zone SA” value in series [6] came to 5.00 ± 0.18 mm. Moreover, the “diameter of the clear zone LM” value in series [7] amounted to 5.50 ± 0.18 mm. For the same substance, the “diameter of the clear zone CS” value in series [8] was 6.50 ± 0.18 mm. The “diameter of the clear zone SS” value in series [9] is given as 4.13 ± 0.11 mm. Moreover, the “diameter of the clear zone SM” value in series [10] is on record as 4.75 ± 0.28 mm.

“Lactobacillus plantarum ATG-K6 [Lb. plantarum ATG-K6]”: the “hemolysis and clear zones” value with sheep blood is recorded as “not observed”. Also, in series [1], the “IL-6 production compared to the control” value is recorded as “induced”. For the same substance, in series [2], the “growth inhibition of GV” value was found to be 28.25%. In addition, the “growth inhibition of CA” value in series [3] stood at 82.11%. Moreover, the “diameter of the clear zone EC” value in [4] is reported as 3.50 ± 0.18 mm. Also, the “diameter of the clear zone PA” value in series [5] is given as 4.00 ± 0.18 mm. In [6], the “diameter of the clear zone SA” value amounted to 4.88 ± 0.21 mm. Besides, in series [7], the “diameter of the clear zone LM” value came out at 4.75 ± 0.13 mm. Besides, the “diameter of the clear zone CS” value in series [8] was found to be 6.13 ± 0.11 mm. Further, the “diameter of the clear zone SS” value in series [9] is recorded as 3.13 ± 0.11 mm. Also, the “diameter of the clear zone SM” value in [10] came out at 4.13 ± 0.11 mm.

Regarding “Lactobacillus plantarum ATG-K8 [Lb. plantarum ATG-K8]”, the “hemolysis and clear zones” value in the series with sheep blood was “not observed”. The “IL-6 production compared to the control” value in series [1] is “induced”. The “growth inhibition of GV” value in series [2] was found to be 44.60%. Also, the “growth inhibition of CA” value in [3] turned out to be 81.34%. In [4], the “diameter of the clear zone EC” value was found to be 3.50 ± 0.18 mm. Also, the “diameter of the clear zone PA” value in series [5] was found to be 3.88 ± 0.11 mm. In addition, the “diameter of the clear zone SA” value in [6] is given as 4.25 ± 0.13 mm. Besides, the “diameter of the clear zone LM” value in series [7] worked out at 5.18 ± 0.21 mm. Also, the “diameter of the clear zone CS” value in series [8] came out at 5.88 ± 0.11 mm. Moreover, the “diameter of the clear zone SS” value in series [9] is 4.00 ± 0.18 mm. For the same substance, the “diameter of the clear zone SM” value in [10] came out at 3.88 ± 0.11 mm.

For the origin of these results see patent publication US12157882B2, “Lactobacillus plantarum strain ATG-K2, ATG-K6 or ATG-K8, and composition for preventing or treating vaginitis comprising same” (ATOGEN CO., LTD, priority 2018, dated 2024).
